Data reported in patent EP4623912A1, “A METHOD FOR DEFATTENING A STEATOTIC LIVER EX VIVO” (ETH Zurich, priority 2024, dated 2025).
“Also recorded” adds a separate entry of the source.

Assays:
male C57BL/6N mice = test: Murine NASH model (HFD, glucose/fructose water, thermoneutral housing); format: in vivo, mouse
Method: To model NASH in murine liver, male C57BL/6N mice were challenged with HFD for 24 weeks in conjunction with 18.9 g/L glucose&23.1 g/L fructose containing drinking water under thermoneutral housing condition (29°C) for 12 weeks before the administration of UCB9608 through HFD (15 mg/kg) for another 12 weeks. Then the mice were analysed in EcoMRI for body composition measurement before 6 hours fasting, followed by dissection to harvest liver and sample blood.
Total RNA was extracted from adipose depots, liver or in vitro cell cultures via Trizol reagent (Invitrogen) according to the manufacturer's instructions. Genomic DNA was removed from the crude RNA samples by DNase treatment (NEB BioLabs). For individual sample, 1 µg of total RNA was used to convert into cDNA library by using the High-Capacity cDNA Reverse transcription kit (Applied Biosystems, 4368813). Quantitative PCR was performed using KAPA SYBR FAST Universal kit (Roche, KK4618) on ViiA7 (Applied Biosystems) and the relative transcript levels were normalized to […] expression via ΔΔCt method. Table 2: Sequences of qPCR primers used in this study.
Plasma collected from mice under different conditions was used to determine levels of lipolysis and liver injury. FFA levels were measured via NEFA assay kit (Wako NEFA kit). TG levels were determined via TG assay kit (Roche Trig/GB reagent). ALT (MAK052, Sigma) and AST (MAK055, Sigma) assay kits were used to determine ALT and AST activity according to the manufacturer's instructions. The absorbance was monitored using Synergy Gen5 Platereader.
Weight of liver pieces (50-100 mg) was recorded before homogenization by 1 mL isopropanol per 50 mg tissue. The homogenates were incubated at room temperature with rotating before spinning down to remove debris at 2000×g for 10 min and collect supernatant. The TG levels were determined (Roche Trig/GB reagent) in Synergy Gen5 Platereader and normalized to the weight of liver pieces.
For NASH cohort, livers were dissected and fixed with 4% PFA in PBS for 24 h at 4°C. The samples were sent to the University of Zurich for histologic analyses. Briefly, liver tissues were dehydrated and embedded in paraffin and underwent section at 3 µm. The slides were stained with hematoxylin and eosin (H&E) and Gomori Green Trichrome directly or stained with anti-cleaved Caspase 3 after antigen retrieval. Afterwards, the images were captured by digital slide scanners and the grade of steatosis, ballooning, inflammation and fibrosis were quantified via the NASH Clinical Research Network Scoring System (Kleiner,D.E. et al. Hepatology 41, (2005)). To perform ORO staining, the fixed samples were sectioned, and the slides were stained via Oil Red O solution, followed by counter-staining with eosin. The images were acquired by digital slide scanners.

ATGL = ATGL response to glucose deprivation after UCB9608-mediated depletion of Golgi Ptdlns4P; format: cell-based; conditions: Golgi Ptdlns4P depleted by UCB9608
human liver graft = tested on: human liver graft
Method: A human liver graft was perfused for 8 days, after being discarded from all Swiss transplant centers. Use of discarded grafts was approved by local authorities (Kantonale Ethik Kommission Zürich KEK Nr. 2017-000412). […] The liver was procured with a total ischemia time of 40 min after circulatory death of the donor. It was flushed with IGL-1 solution and perfused for 2 h with Belzer MPS at 8°C. The infrahepatic vena cava was closed with a suture and the hepatic artery, portal vein, suprahepatic vena cava and common bile duct were cannulated with steel cannulas. The graft was subsequently perfused with whole blood and a custom built normothermic perfusion machine (Eshmuminov,D. et al, Nat Biotechnol 38, (2020)). Hepatic arterial pressure was controlled to be 80/50 mmHg, allowing for an average flow of 0.25 L/min. A vasodilator, epoprostenol, was automatically infused to keep arterial flow stable. Oxygenation was automatically controlled with a setpoint partial pressure of oxygen equal to 12 kPa. Portal venous flow was controlled to be at 1 L/min, resulting in a pressure of 2 mmHg on average. Further, oxygenation of portal blood was automatically regulated to achieve 65% saturation in the vena cava. Use of an electric pinch valve further allowed for pressure regulation in the vena cava, keeping a constant pressure of 0 mmHg. Glucose levels were automatically controlled by using a real-time glucose sensor (CCIT) and automated insulin infusions, keeping glucose levels at 7 mmol/L from the second day of perfusion onwards. A dialysis bypass was used to clear waste metabolites and control haematocrit levels by using a fixed dialysate influx rate of 200 mL/h and an automatically controlled outflux. […] After 8 days of perfusion, the liver weight decreased to 1507g (without gallbladder) and was sent for pathological examination.
Perfusate was mixed with 6 units of red blood cell concentrate (A+), 5 units of fresh frozen […], one unit of thrombocytes and 200 mL of 20% human albumin (CSL Behring). An initial bolus of 2.25 g Tazobactam and 500 mg Methylprednisolone was administered after priming. During the perfusion, 1000 U of heparin were infused per hour. Further, 2.25 g of Tazobactam, 3.36 g of ursodesoxycholic acid and 500 mg of methylprednisolone were continuously infused per day. UCB9608 was administered as a daily bolus by adding 300 µL of 50 mM solution directly to the blood reservoir, targeting a final concentration in the perfusate of 10 µM. On the first day, a larger bolus of 600 µL was given.
Adipose depots, liver pieces, differentiated iBAs, HepG2, HEK293T and HEK293-AAV cell types were homogenized in RIPA buffer (50 mM Tris-HCl pH 7.4, 150 mM NaCl, 2 mM EDTA, 1.0% Triton X100, 0.5% sodium deoxycholate) with protease inhibitors (Complete, Roche) and phosphatase inhibitors (Halt phosphatase inhibitor cocktail, ThermoFisher). The homogenates were centrifuged at 12,000×g for 10 min at 4°C to remove debris and collect whole cell extract (WCE). The concentration of WCE was determined by DC Protein Assay (Bio-Rad). After boiling the sample with Lämmeli buffer at 95°C for 5 min, equal amount of proteins was loaded and separated on 12% SDS-PAGE. […]

[1] = NASH mice, UCB9608 through HFD (15 mg/kg) 12 weeks
[2] = NASH mice, liver histology, UCB9608 12 weeks vs vehicle
[3] = biopsies from both lobes, unchanged in the two control grafts

## COc1ccc(NC(=O)N2CCN(c3nc(N)nc4c3cnn4C)[C@@H](C)C2)c(C)c1 [UCB9608]
Male C57BL/6N mice; NASH livers, qPCR (Fig. 7j)
  inflammation levels by transcript levels of inflammatory markers: mitigation
Male C57BL/6N mice; NASH livers, qPCR (Fig. 7k), vs vehicle
  degree of fibrosis-related marker expression: substantially ameliorated
Male C57BL/6N mice; [1]
  ALT activity in the plasma: reduction
  AST activity in the plasma: reduction
  TG levels in the plasma: reduction; also recorded: reduced
  fatty acid oxidation (liver): significant elevation
  hepatic TG levels: reduced
  liver mass/body weight ratio: reduced
Male C57BL/6N mice; NASH mice, UCB9608 through HFD (15 mg/kg) 12 weeks, EcoMRI
  fat mass: significant loss
Male C57BL/6N mice; NASH mice, UCB9608 through HFD (15 mg/kg) 12 weeks, vs vehicle
  body weight: significant loss
Male C57BL/6N mice; [2]
  NAFLD activity score: significantly lower
  fibrosis grade: significantly lower
  inflammation levels: significantly lower
  liver injury: significantly lower
  steatosis grade: significantly lower
ATGL
  ATGL response to glucose deprivation: loss of ATGL regulation
Human liver graft
  cell viability (ATP analysis and histology): remained until the end of perfusion
  time liver function was well preserved: at least 6 days
Human liver graft; after 8 days, without gallbladder, initial weight 2740g with gall bladder
  liver weight after perfusion: 1507 g
Human liver graft; after 8 days, 15% before perfusion, pathological examination
  macrovesicular steatosis after perfusion: less than 5%
Human liver graft; [3]
  ATGL levels in liver biopsies: substantially elevated
  TG deposition in liver biopsies: reduced
Human liver graft; during perfusion, UCB9608 daily, target 10 µM
  non-esterified fatty acids (NEFAs) from dialysate: detected
